# Measurements from article PMC6395926, “Mass Balance and Drug Interaction Potential of Intravenous Eravacycline Administered to Healthy Subjects” (Antimicrobial Agents and Chemotherapy, 2019).
# Where two headings read alike, the source gives them in different places.
# What was measured:
# [1] = Mass balance study: PK of total radioactivity in whole blood and plasma; type: in vivo, human; details: for Cmax, total radioactivity: geometric mean (%CV), n = 5
# From the text: (§1) (ii) Study design. This was a single-center, open-label study of a single i.v. dose of [^14C]eravacycline to assess the mass balance recovery and PK of eravacycline. The primary objectives were to determine mass balance recovery, determine routes and rates of excretion, provide metabolite profiling and structural identification, and assess the PK of radioactivity in plasma and whole blood. Subjects were screened for inclusion in the study, including a detailed medical history, physical examination, and laboratory evaluations, in the 28 days before dosing. Eligible subjects were admitted to the clinical study unit at approximately 21:00 on the evening prior to study drug administration (day −1) and remained on site until 240 h postdose for collection of urine, feces, and blood samples. After an overnight fast, each subject received 60 mg [^14C]eravacycline containing not more than 3.8 MBq (105 μCi) ^14C as a single i.v. infusion over 60 min.
# (iv) Determination of radioactivity. […] Plasma and whole-blood concentrations of total radioactivity were determined using an analytical method at Quotient Bioresearch (Rushden, Northamptonshire, UK). The lower limit of quantification (LLOQ) for total radioactivity was 11 to 13 ng equivalents (equiv)/ml in plasma and 41 to 46 ng equiv/g in whole blood.
# (vi) Study assessments. PK parameters were determined for total radioactivity in plasma and whole blood. Eravacycline, TP-498, and TP-6208 concentrations in plasma were quantified using a validated assay with internal standards. […]
# (§2) (viii) Study analysis. Descriptive statistics (mean, median, standard deviation [SD], percent coefficient of variation [%CV], minimum, maximum, number, geometric mean, and geometric %CV) were calculated for all concentration data. Pharmacokinetic parameters were calculated using Phoenix WinNonlin v6.3 (Certera USA, Inc.).
# [2] = set-up: species or system human; details: in vivo
# Procedure: (§3) (iii) Study assessments. Blood samples for PK analysis of eravacycline and its metabolites, TP-498, TP-6208, and TP-034, were collected predose and 1, 2, 4, 6, 8, 12, 24, 36, and 48 h after the start of the i.v. infusion on day 1 and day 10 (itraconazole) or day 1 and day 17 (rifampin). Safety assessments included AEs, clinical laboratory safety tests (hematology, serum chemistry, electrolytes, coagulation, urinalysis, and lipid profile), vital signs, physical examinations, and 12-lead ECG.
# [3] = Mass balance study: excretion of radioactivity in urine and feces after i.v. [14C]eravacycline; type: in vivo, human; details: 60 mg [14C]eravacycline i.v.
# From the text: as §1, with “Eligible subjects were admitted to the clinical study unit at approximately 21:00 on the evening prior to study drug administration (day −1) and remained on site until 240 h postdose for collection of urine, feces, and blood samples.” left out
# (v) Excretion of radioactivity. Mass balance was determined from the incremental amount and cumulative amount excreted in urine, feces, and urine and feces combined. Amount excreted and amount excreted expressed as a percentage of administered dose were determined for urine, feces, and total samples.
# [4] = Itraconazole drug interaction study: safety/tolerability; type: in vivo, human
# Procedure: as §3
# [5] = Drug interaction study with rifampin (CYP3A4 inducer): plasma PK of i.v. eravacycline and metabolites; type: in vivo; details: human, intravenous, day 17, eravacycline plus rifampin, read-out: AUC0–t (distribution, as worded in the text)
# [6] = set-up: method as in PMID 30150464; details: healthy volunteers, i.v. 1 mg/kg q12h for 10 days; cited from earlier work
# [7] = Mass balance study: plasma PK of eravacycline, TP-498 and TP-6208 (LC-MS); type: in vivo, human; details: plasma, single i.v. dose of [14C]eravacycline
# From the text: as §1
# (vi) Study assessments. PK parameters were determined for total radioactivity in plasma and whole blood. Eravacycline, TP-498, and TP-6208 concentrations in plasma were quantified using a validated assay with internal standards. The following PK parameters were determined: Cmax, Tmax, time from dosing before the first quantifiable concentration in a concentration versus time profile (Tlag), AUC0–t, AUC0–24, AUC0–∞, the percentage of AUC0–∞ extrapolated beyond the time of the last measurable concentration (AUC%extrap), the slope of the apparent terminal phase (lambda-z), the apparent terminal half-life (t1/2), the mean residence time estimated between time zero and infinity (MRT0-∞), the apparent volume of plasma cleared of analyte per unit time (CL), and the volume of distribution of analyte at steady state (Vss).
# Plasma concentrations of eravacycline, TP-498, and TP-6208 were measured by liquid chromatography with tandem mass spectrometry (LC-MS). The LLOQ was 5 ng/ml for eravacycline, TP-498, and TP-6208. The calibration ranges for eravacycline, TP-498, and TP-6208 in human urine were 50 to 10,000 ng/ml, 50 to 1,000 ng/ml, and 20 to 1,000 ng/ml, respectively. The calibration ranges for eravacycline, TP-498, and TP-6208 in human plasma were 5 to 500 ng/ml.
# as §2
# [8] = human, iv, 60 mg, geometric mean (%CV), n = 2
structure (smiles),measurement,setting,value
CN(C)[C@@H]1C(O)=C(C(N)=O)C(=O)[C@@]2(O)C(O)=C3C(=O)c4c(O)c(NC(=O)CN5CCCC5)cc(F)c4C[C@H]3C[C@@H]12 [eravacycline],"Cmax, total radioactivity",[1]; plasma,893 (18.0) ng equiv/ml
same,time postdose total radioactivity remained quantifiable,"[1]; plasma, majority of subjects",up to 241 h
same,"Cmax, total radioactivity",[1]; whole blood,911 (14.5) ng equiv/ml
same,subjects who experienced an AE,"[2]; human, iv",25.0%
same,serious AEs or discontinuations for AEs related to study drug,[2],No serious AEs
same,"Renal excretion, share of the dose",[3],approximately 34%
same,total radioactivity recovered in the feces,[3],47.8%
same,total radioactive dose recovered in the urine and feces,[3]; 288-h collection period,82.8%
same,share of the dose recovered within the first 72 h,[3]; urine and feces,Approximately half
same,subjects who experienced an AE,"[4]; eravacycline i.v. plus itraconazole treatment period, 1 of 10 subjects",10.0%
same,subjects who experienced an AE,"[4]; eravacycline i.v. treatment period, 1 of 12 subjects",8.3%
same,serious AEs or discontinuations for AEs related to study drug,[4]; itraconazole study,No serious AEs
same,AUC(0-t),[5],3090 ng·h/mL
same,AUC0–12,[6],"6,309 ng·h/ml"
same,clearance (CL),[6],2.67 mL/min/kg
same,mean peak plasma concentration (Cmax),[6],"1,825 ng/ml"
same,volume of distribution at steady state (Vss),[6],4.0 L/kg
same,clearance,[7]; [8],228 ± 13.8 mL/min
same,half-life,[7]; [8],18.2 ± 5 h
same,MRT inf,"[7]; human, iv, 60 mg, geometric mean (%CV), n = 2, read-out: MRT0-∞",15.9 ± 8.9 h
same,CL renal,"[7]; human, iv, 60 mg, geometric mean (%CV), n = 5",41.9 ± 16.6 mL/min
same,Tmax,"[7]; male, human, iv, 60 mg",0.55 to 1 h
same,AUC(0-inf),"[7]; male, human, iv, 60 mg, geometric mean (%CV), n = 2",4380 ng·h/mL
same,Cmax,"[7]; male, human, iv, 60 mg, geometric mean (%CV), n = 5, read-out: Cmax",1100 ng/mL
same,Vd,"[7]; male, human, iv, 60 mg, geometric mean (%CV), n = 2, read-out: Vss (volume of distribution)",217 ± 4.9 L
same,time postdose plasma concentrations were quantifiable,[7],approximately 73 h
